Experimental data published in patent US20190029257A1, “APPLICATION FOR HERBICIDE-TOLERANT PROTEIN” (BEIJING DABEINONG TECHNOLOGY GROUP CO., LTD., priority 2016, published 2019).

Columns and labels:
Assay type in all cases: in vivo
[1] = tested on: Gm chloroplastic ALT-3-01 soybean plants; assay: Halosulfuron-methyl tolerance of soybean plants (damage degree); set-up: dose or concentration left out as unconfirmed; settings: for Average damage % 3 DAT: 3 days after spraying; for Average damage % 7 DAT: 7 days after spraying; for Average damage % 14 DAT: 14 days after spraying; for Average damage % 21 DAT: 21 days after spraying
Description: (§1) The herbicide tolerance effects of Gm cytoplasmic ALT-1-01 soybean plants, Gm chloroplastic ALT-1-01 soybean plants, Gm cytoplasmic ALT-2-01 soybean plants, Gm chloroplastic ALT-2-01 soybean plants, Gm cytoplasmic ALT-3-01 soybean plants, Gm chloroplastic ALT-3-01 soybean plants and wild-type soybean plants on halosulfuron-methyl were detected (at seedling stage), respectively.
(§2) Gm cytoplasmic ALT-1-01 soybean plants, Gm chloroplastic ALT-1-01 soybean plants, Gm cytoplasmic ALT-2-01 soybean plants, Gm chloroplastic ALT-2-01 soybean plants, Gm cytoplasmic ALT-3-01 soybean plants, Gm chloroplastic ALT-3-01 soybean plants and wild-type soybean plants were respectively taken and sprayed with halosulfuron-methyl ([…]) and a blank solvent (water). The damage degree caused by the herbicide was measured for each plant according to the leaf curl degree and the growth point damage degree 3 days after spraying (3 DAT), 7 days after spraying (7 DAT), 14 days after spraying (14 DAT) and 21 days after spraying (21 DAT), respectively: considering conditions of leaves being flat as the untreated plants and growth points being intact as having a damage degree of 0%; considering conditions of veins being locally browned, new leaves being malformed and plant growth being slow as having a damage degree of 50%; and considering conditions of veins being purple to whole plant being dead and growth points being browned and dry as having a damage degree of 100%. There were 2 strains in Gm cytoplasmic ALT-1-01 soybean plants in total (S1 and S2), 2 strains in Gm chloroplastic ALT-1-01 soybean plants in total (S3 and S4), 2 strains in Gm cytoplasmic ALT-2-01 soybean plants in total (S5 and S6), 2 strains in Gm chloroplastic ALT-2-01 soybean plants in total (S7 and S8), 2 strains in Gm cytoplasmic ALT-3-01 soybean plants in total (S9 and S10), 2 strains in Gm chloroplastic ALT-3-01 soybean plants in total (S11 and S12), and 1 strain in wild-type soybean plants (CK1) in total; and 10-15 plants were selected from each strain and tested.

[2] = tested on: Zm cytoplasmic ALT-1-02 maize plants; assay: Halosulfuron-methyl tolerance of maize plants (damage degree); settings: 36 g ai/ha (4x Hal.); for Average damage % 3 DAT: 3 days after spraying; for Average damage % 7 DAT: 7 days after spraying; for Average damage % 14 DAT: 14 days after spraying; for Average damage % 21 DAT: 21 days after spraying
Description: as §1, with “Zm” for “Gm”, “ALT-1-02 maize” for “ALT-1-01 soybean”, “ALT-2-02 maize” for “ALT-2-01 soybean”, “ALT-3-02 maize” for “ALT-3-01 soybean”, “maize” for “soybean”, “V3-V4” for “seedling”
(§3) Zm cytoplasmic ALT-1-02 maize plants, Zm chloroplastic ALT-1-02 maize plants, Zm cytoplasmic ALT-2-02 maize plants, Zm chloroplastic ALT-2-02 maize plants, Zm cytoplasmic ALT-3-02 maize plants, Zm chloroplastic ALT-3-02 maize plants and wild-type maize plants were respectively taken and sprayed with halosulfuron-methyl (36 g ai/ha, 4-fold field concentration) and a blank solvent (water). The damage degree caused by the herbicide was measured for each plant according to the plant growth status 3 days after spraying (3 DAT), 7 days after spraying (7 DAT), 14 days after spraying (14 DAT) and 21 days after spraying (21 DAT), respectively: considering a growth status equivalent to that of the untreated plants as having a damage degree of 0%; considering conditions of leaves being partially chlorotic and yellow but substantially not affecting the plant normal growth as having a damage degree of 50%; and considering the whole plant being purple and dying as having a damage degree of 100%. There were 2 strains in Zm cytoplasmic ALT-1-02 maize plants in total (S13 and S14), 2 strains in Zm chloroplastic ALT-1-02 maize plants in total (S15 and S16), 2 strains in Zm cytoplasmic ALT-2-02 maize plants in total (S17 and S18), 2 strains in Zm chloroplastic ALT-2-02 maize plants in total (S19 and S20), 2 strains in Zm cytoplasmic ALT-3-02 maize plants in total (S21 and S22), 2 strains in Zm chloroplastic ALT-3-02 maize plants in total (S23 and S24), and 1 strain in wild- type maize plants (CK2) in total; and 10-15 plants were selected from each strain and tested.

[3] = tested on: Zm chloroplastic ALT-3-02 maize plants; assay: as above; settings: 36 g ai/ha (4x Hal.); for Average damage % 3 DAT: 3 days after spraying; for Average damage % 7 DAT: 7 days after spraying; for Average damage % 14 DAT: 14 days after spraying; for Average damage % 21 DAT: 21 days after spraying
Description: as §1, with “Zm” for “Gm”, “ALT-1-02 maize” for “ALT-1-01 soybean”, “ALT-2-02 maize” for “ALT-2-01 soybean”, “ALT-3-02 maize” for “ALT-3-01 soybean”, “maize” for “soybean”, “V3-V4” for “seedling”
as §3

[4] = tested on: wild-type soybean plants (CK1); assay: Halosulfuron-methyl tolerance of soybean plants (damage degree)
Description: as §1, §2

[5] = tested on: wild-type maize plants (CK2); assay: Halosulfuron-methyl tolerance of maize plants (damage degree); set-up: Average damage % 3 DAT / Average damage % 7 DAT / Average damage % 14 DAT / Average damage % 21 DAT: dose or concentration left out as unconfirmed
Description: as §1, with “Zm” for “Gm”, “ALT-1-02 maize” for “ALT-1-01 soybean”, “ALT-2-02 maize” for “ALT-2-01 soybean”, “ALT-3-02 maize” for “ALT-3-01 soybean”, “maize” for “soybean”, “V3-V4” for “seedling”
as §3, with “Zm cytoplasmic ALT-1-02 maize plants, Zm chloroplastic ALT-1-02 maize plants, Zm cytoplasmic ALT-2-02 maize plants, Zm chloroplastic ALT-2-02 maize plants, Zm cytoplasmic ALT-3-02 maize plants, Zm chloroplastic ALT-3-02 maize plants and wild-type maize plants were respectively taken and sprayed with halosulfuron-methyl (36 g ai/ha, 4-fold field concentration) and a blank solvent (water).” left out

COC(=O)c1c(Cl)nn(C)c1S(=O)(=O)NC(=O)Nc1nc(OC)cc(OC)n1 [halosulfuron-methyl, 3-chlorine-5-(4,6-dimethoxypyrimidine-2-aminocarbonylaminosulphonyl)-1-methylpyrazole-4-carboxylic acid methyl ester]
Average damage % 3 DAT ([1]; strain S11): 10% | Average damage % 7 DAT ([1]; strain S11): 4% | Average damage % 14 DAT ([1]; strain S11): 0% | Average damage % 21 DAT ([1]; strain S11): 0% | Average damage % 3 DAT ([1]; strain S12): 11% | Average damage % 7 DAT ([1]; strain S12): 5% | Average damage % 14 DAT ([1]; strain S12): 0% | Average damage % 21 DAT ([1]; strain S12): 0% | Average damage % 3 DAT ([2]; strain S13): 0% | Average damage % 7 DAT ([2]; strain S13): 2% | Average damage % 14 DAT ([2]; strain S13): 0% | Average damage % 21 DAT ([2]; strain S13): 0% | Average damage % 3 DAT ([2]; strain S14): 0% | Average damage % 7 DAT ([2]; strain S14): 3% | Average damage % 14 DAT ([2]; strain S14): 0% | Average damage % 21 DAT ([2]; strain S14): 0% | Average damage % 3 DAT ([3]; strain S23): 0% | Average damage % 7 DAT ([3]; strain S23): 0% | Average damage % 14 DAT ([3]; strain S23): 0% | Average damage % 21 DAT ([3]; strain S23): 0% | Average damage % 3 DAT ([3]; strain S24): 0% | Average damage % 7 DAT ([3]; strain S24): 0% | Average damage % 14 DAT ([3]; strain S24): 0% | Average damage % 21 DAT ([3]; strain S24): 0% | tolerance of the plants to the herbicide ([4]; 34 g ai/ha, summary of Table 3): not tolerant | Average damage % 3 DAT ([4]; strain CK1, 34 g ai/ha (Hal.), 3 days after spraying): 51% | Average damage % 7 DAT ([4]; strain CK1, 34 g ai/ha (Hal.), 7 days after spraying): 87% | Average damage % 14 DAT ([4]; strain CK1, 34 g ai/ha (Hal.), 14 days after spraying): 100% | Average damage % 21 DAT ([4]; strain CK1, 34 g ai/ha (Hal.), 21 days after spraying): 100% | damage to the plants ([5]; 36 g ai/ha, summary of Table 4): some slight damage | Average damage % 3 DAT ([5]; strain CK2, 3 days after spraying): 10% | Average damage % 7 DAT ([5]; strain CK2, 7 days after spraying): 20% | Average damage % 14 DAT ([5]; strain CK2, 14 days after spraying): 19% | Average damage % 21 DAT ([5]; strain CK2, 21 days after spraying): 18%
